≈ marks a conversion by molar mass, not a printed value. Where two headings read alike, the source gives them in different places.
What was measured:
Format in all cases: cell-based
S. aureus = assay: MIC by serial two-fold agar dilution (Mueller-Hinton agar), S. aureus; conditions: Staphylococcus aureus
Experimental: (§1) Minimum inhibitory concentrations (MIC) of BB-S520 were determined by serial two-fold agar dilution method using Steers' apparatus on Meuller-Hinton agar plate against 31 test organisms for the primary screening and also against 61 strains of Pseudomonas aeruginosa for the secondary evaluation. The results are shown in Table 1 and Table 2 along with those of BB-S514 and sulbenicillin.
(§2) Minimum inhibitory concentrations (MIC) of cephalosporins in the present study were determined by serial two-fold agar dilution method using Steers' apparatus on Mueller-Hinton agar plate against 31 test organisms for the primary screening and also against 61 strains of Pseudomonas aeruginosa for the secondary evaluation.

E. coli = assay: MIC by serial two-fold agar dilution (Mueller-Hinton agar), E. coli; conditions: Escherichia coli
Experimental: as §1, §2

K. pneumoniae = assay: MIC by serial two-fold agar dilution (Mueller-Hinton agar), K. pneumoniae; conditions: Klebsiella pneumoniae
Experimental: as §1, §2

E. cloacae = assay: MIC by serial two-fold agar dilution (Mueller-Hinton agar), E. cloacae; conditions: Enterobacter cloacae
Experimental: as §1, §2

P. vulgaris = assay: MIC by serial two-fold agar dilution (Mueller-Hinton agar), P. vulgaris
Experimental: as §1, §2

S. enteritidis = assay: MIC by serial two-fold agar dilution (Mueller-Hinton agar), S. enteritidis
Experimental: as §1, §2

Pseudomonas aeruginosa = assay: MIC by agar dilution against 61 strains of Pseudomonas aeruginosa, secondary evaluation
Experimental: as §1, §2

SMILES: CC1(C)S[C@@H]2[C@H](NC(=O)C(c3ccccc3)S(=O)(=O)O)C(=O)N2[C@H]1C(=O)O (stereo partly shown) [Sulbenicillin, sulbenicillin]
- MIC (S. aureus; S. aureus BX-1633, Table 1, read-out: MIC): 3.1 µg/mL (≈ 7.48 µM)
- MIC (S. aureus; S. aureus BX-1633 A9606, Table 6, read-out: MIC): 3.1 µg/mL (≈ 7.48 µM)
- MIC (S. aureus; S. aureus Smith (1st line), Table 1, read-out: MIC): 1.6 µg/mL (≈ 3.86 µM)
- MIC (S. aureus; S. aureus Smith (2nd line), Table 1, read-out: MIC): 6.3 µg/mL (≈ 15.2 µM)
- MIC (S. aureus; S. aureus Smith A9537, Table 6, read-out: MIC): 3.1 µg/mL (≈ 7.48 µM)
- MIC (S. aureus; S. aureus Smith A15907, Table 6): 12.5 µg/mL (≈ 30.2 µM)
- MIC (S. aureus; S. aureus Smith A20239, Table 6, read-out: MIC): 6.3 µg/mL (≈ 15.2 µM)
- MIC (S. aureus; S. aureus Smith A20240, Table 6, read-out: MIC): 6.3 µg/mL (≈ 15.2 µM)
- MIC (S. aureus; S. aureus Smith A20701, Table 6, read-out: MIC): 50 µg/mL (≈ 121 µM)
- MIC (S. aureus; S. aureus, unnamed strain (4th S. aureus line), Table 1, read-out: MIC): 25 µg/mL (≈ 60.3 µM)
- MIC (S. aureus; S. aureus, unnamed strain (5th S. aureus line), Table 1, read-out: MIC): 3.1 µg/mL (≈ 7.48 µM)
- MIC (S. aureus; S. aureus, unnamed strain (6th S. aureus line), Table 1, read-out: MIC): 50 µg/mL (≈ 121 µM)
- MIC (E. coli; E. coli A9435, Table 6, read-out: MIC): 12.5 µg/mL (≈ 30.2 µM)
- MIC (E. coli; E. coli A9844, Table 6, read-out: MIC): 0.8 µg/mL (≈ 1.93 µM)
- MIC (E. coli; E. coli A10664, Table 6, read-out: MIC): 1.6 µg/mL (≈ 3.86 µM)
- MIC (E. coli; E. coli A20366, Table 6, read-out: MIC): > 100 µg/mL
- MIC (E. coli; E. coli A20520, Table 6, read-out: MIC): 6.3 µg/mL (≈ 15.2 µM)
- MIC (E. coli; E. coli A20732, Table 6, read-out: MIC): 100 µg/mL (≈ 241 µM)
- MIC (E. coli; E. coli A20898, Table 6, read-out: MIC): > 100 µg/mL
- MIC (E. coli; E. coli Juhl A15119, Table 6, read-out: MIC): 3.1 µg/mL (≈ 7.48 µM)
- MIC (E. coli; E. coli Juhl, Table 1, read-out: MIC): 1.6 µg/mL (≈ 3.86 µM)
- MIC (E. coli; E. coli NIHJ, Table 1, read-out: MIC): 0.8 µg/mL (≈ 1.93 µM)
- MIC (E. coli; E. coli NIHJ, Table 6, read-out: MIC): 0.8 µg/mL (≈ 1.93 µM)
- MIC (E. coli; E. coli, unnamed strain (3rd E. coli line), Table 1): 0.8 µg/mL (≈ 1.93 µM)
- MIC (E. coli; E. coli, unnamed strain (4th E. coli line), Table 1, read-out: MIC): 1.6 µg/mL (≈ 3.86 µM)
- MIC (E. coli; E. coli, unnamed strain (5th E. coli line), Table 1, read-out: MIC): > 100 µg/mL
- MIC (E. coli; E. coli, unnamed strain (6th E. coli line), Table 1, read-out: MIC): 6.3 µg/mL (≈ 15.2 µM)
- MIC (E. coli; E. coli, unnamed strain (7th E. coli line), Table 1, read-out: MIC): > 100 µg/mL
- MIC (E. coli; E. coli, unnamed strain (8th E. coli line), Table 1, read-out: MIC): > 100 µg/mL
- MIC (E. coli; E. coli, unnamed strain (9th E. coli line), Table 1, read-out: MIC): 6.3 µg/mL (≈ 15.2 µM)
- MIC (K. pneumoniae; K. pneumoniae A9977, Table 6): 3.1 µg/mL (≈ 7.48 µM)
- MIC (K. pneumoniae; K. pneumoniae, Table 1): 6.3 µg/mL (≈ 15.2 µM)
- MIC (E. cloacae; E. cloacae (1st line), Table 1): 12.5 µg/mL (≈ 30.2 µM)
- MIC (E. cloacae; E. cloacae (2nd line), Table 1): > 100 µg/mL
- MIC (E. cloacae; E. cloacae (3rd line), Table 1): 12.5 µg/mL (≈ 30.2 µM)
- MIC (E. cloacae; E. cloacae A9656, Table 6): 12.5 µg/mL (≈ 30.2 µM)
- MIC (E. cloacae; E. cloacae A9657, Table 6): > 100 µg/mL
- MIC (E. cloacae; E. cloacae A9659, Table 6): 12.5 µg/mL (≈ 30.2 µM)
- MIC (P. vulgaris; P. vulgaris A9539, Table 6): 3.1 µg/mL (≈ 7.48 µM)
- MIC (P. vulgaris; Proteus vulgaris, P. vulgaris, Table 1, read-out: MIC): 3.1 µg/mL (≈ 7.48 µM)
- MIC (S. enteritidis; S. enteritidis A9531, Table 6): 1.6 µg/mL (≈ 3.86 µM)
- MIC (S. enteritidis; Salmonella enterica, S. enteritidis, Table 1, read-out: MIC): 1.6 µg/mL (≈ 3.86 µM)
- MIC (Pseudomonas aeruginosa; BBRI Pa-No. 1, D15, Table 7): 12.5 µg/mL (≈ 30.2 µM)
- MIC (Pseudomonas aeruginosa; BBRI Pa-No. 3, 1449VA, Table 7): 12.5 µg/mL (≈ 30.2 µM)
- MIC (Pseudomonas aeruginosa; BBRI Pa-No. 4, H9 D113, Table 7): 12.5 µg/mL (≈ 30.2 µM)
- MIC (Pseudomonas aeruginosa; BBRI Pa-No. 9, Yale, Table 7): 12.5 µg/mL (≈ 30.2 µM)
- MIC (Pseudomonas aeruginosa; BBRI Pa-No. 14, Table 7): 12.5 µg/mL (≈ 30.2 µM)
- MIC (Pseudomonas aeruginosa; BBRI Pa-No. 17, H6 D114, Table 2): 12.5 µg/mL (≈ 30.2 µM)
- MIC (Pseudomonas aeruginosa; BBRI Pa-No. 18, H8 D121, Table 2): 12.5 µg/mL (≈ 30.2 µM)
- MIC (Pseudomonas aeruginosa; BBRI Pa-No. 19, Table 2): 12.5 µg/mL (≈ 30.2 µM)
- MIC (Pseudomonas aeruginosa; BBRI Pa-No. 25, Table 2): 12.5 µg/mL (≈ 30.2 µM)
- MIC (Pseudomonas aeruginosa; BBRI Pa-No. 26, Ps32, Table 2): 12.5 µg/mL (≈ 30.2 µM)
- MIC (Pseudomonas aeruginosa; BBRI Pa-No. 26, Ps32, Table 7): 12.5 µg/mL (≈ 30.2 µM)
- MIC (Pseudomonas aeruginosa; BBRI Pa-No. 31, Table 2): 12.5 µg/mL (≈ 30.2 µM)
- MIC (Pseudomonas aeruginosa; BBRI Pa-No. 34, Table 7): 12.5 µg/mL (≈ 30.2 µM)
- MIC (Pseudomonas aeruginosa; BBRI Pa-No. 60, Table 2): 12.5 µg/mL (≈ 30.2 µM)
- MIC (Pseudomonas aeruginosa; BBRI Pa-No. 60, Table 7): 12.5 µg/mL (≈ 30.2 µM)
- MIC (Pseudomonas aeruginosa; Pseudomonas aeruginosa): 12.5 µg/mL (≈ 30.2 µM)
- MIC (Pseudomonas aeruginosa; Pseudomonas aeruginosa, 61 strains of Pseudomonas aeruginosa, Table 7, read-out: Geometric Mean of MIC): 24 µg/mL (≈ 57.9 µM)
- MIC (Pseudomonas aeruginosa; Pseudomonas aeruginosa, BBRI Pa-No. 1, D15, Table 2, read-out: MIC): 25 µg/mL (≈ 60.3 µM)
- MIC (Pseudomonas aeruginosa; Pseudomonas aeruginosa, BBRI Pa-No. 2, VA, Table 7, read-out: MIC): 25 µg/mL (≈ 60.3 µM)
- MIC (Pseudomonas aeruginosa; Pseudomonas aeruginosa, BBRI Pa-No. 3, 1449VA, Table 2, read-out: MIC): 6.3 µg/mL (≈ 15.2 µM)
- MIC (Pseudomonas aeruginosa; Pseudomonas aeruginosa, BBRI Pa-No. 4, H9 D113, Table 2, read-out: MIC): 25 µg/mL (≈ 60.3 µM)
- MIC (Pseudomonas aeruginosa; Pseudomonas aeruginosa, BBRI Pa-No. 5, M4865KC, Table 2, read-out: MIC): 25 µg/mL (≈ 60.3 µM)
- MIC (Pseudomonas aeruginosa; Pseudomonas aeruginosa, BBRI Pa-No. 5, N4865KC, Table 7, read-out: MIC): 6.3 µg/mL (≈ 15.2 µM)
- MIC (Pseudomonas aeruginosa; Pseudomonas aeruginosa, BBRI Pa-No. 6, No. 5, Table 2, read-out: MIC): > 100 µg/mL
- MIC (Pseudomonas aeruginosa; Pseudomonas aeruginosa, BBRI Pa-No. 6, No. 5, Table 7, read-out: MIC): 100 µg/mL (≈ 241 µM)
- MIC (Pseudomonas aeruginosa; Pseudomonas aeruginosa, BBRI Pa-No. 7, Table 2, read-out: MIC): 25 µg/mL (≈ 60.3 µM)
- MIC (Pseudomonas aeruginosa; Pseudomonas aeruginosa, BBRI Pa-No. 7, Table 7, read-out: MIC): 25 µg/mL (≈ 60.3 µM)
- MIC (Pseudomonas aeruginosa; Pseudomonas aeruginosa, BBRI Pa-No. 8, Table 2, read-out: MIC): 25 µg/mL (≈ 60.3 µM)
- MIC (Pseudomonas aeruginosa; Pseudomonas aeruginosa, BBRI Pa-No. 8, Table 7, read-out: MIC): 25 µg/mL (≈ 60.3 µM)
- MIC (Pseudomonas aeruginosa; Pseudomonas aeruginosa, BBRI Pa-No. 9, Yale, Table 2, read-out: MIC): 25 µg/mL (≈ 60.3 µM)
- MIC (Pseudomonas aeruginosa; Pseudomonas aeruginosa, BBRI Pa-No. 10, Table 2, read-out: MIC): > 100 µg/mL
- MIC (Pseudomonas aeruginosa; Pseudomonas aeruginosa, BBRI Pa-No. 10, Table 7, read-out: MIC): > 100 µg/mL
- MIC (Pseudomonas aeruginosa; Pseudomonas aeruginosa, BBRI Pa-No. 11, Table 2, read-out: MIC): 25 µg/mL (≈ 60.3 µM)
- MIC (Pseudomonas aeruginosa; Pseudomonas aeruginosa, BBRI Pa-No. 11, Table 7, read-out: MIC): 25 µg/mL (≈ 60.3 µM)
- MIC (Pseudomonas aeruginosa; Pseudomonas aeruginosa, BBRI Pa-No. 12, Table 2, read-out: MIC): 50 µg/mL (≈ 121 µM)
- MIC (Pseudomonas aeruginosa; Pseudomonas aeruginosa, BBRI Pa-No. 12, Table 7, read-out: MIC): 25 µg/mL (≈ 60.3 µM)
- MIC (Pseudomonas aeruginosa; Pseudomonas aeruginosa, BBRI Pa-No. 14, Table 2, read-out: MIC): 25 µg/mL (≈ 60.3 µM)
- MIC (Pseudomonas aeruginosa; Pseudomonas aeruginosa, BBRI Pa-No. 15, Table 2, read-out: MIC): 100 µg/mL (≈ 241 µM)
- MIC (Pseudomonas aeruginosa; Pseudomonas aeruginosa, BBRI Pa-No. 15, Table 7, read-out: MIC): 50 µg/mL (≈ 121 µM)
- MIC (Pseudomonas aeruginosa; Pseudomonas aeruginosa, BBRI Pa-No. 16, No. 130, Table 2, read-out: MIC): 6.3 µg/mL (≈ 15.2 µM)
- MIC (Pseudomonas aeruginosa; Pseudomonas aeruginosa, BBRI Pa-No. 16, No. 130, Table 7, read-out: MIC): 3.1 µg/mL (≈ 7.48 µM)
- MIC (Pseudomonas aeruginosa; Pseudomonas aeruginosa, BBRI Pa-No. 17, H6 D114, Table 7, read-out: MIC): 25 µg/mL (≈ 60.3 µM)
- MIC (Pseudomonas aeruginosa; Pseudomonas aeruginosa, BBRI Pa-No. 18, H8 D121, Table 7, read-out: MIC): 3.1 µg/mL (≈ 7.48 µM)

Source: patent publication US4138554A, “7-[D-α-(4-Hydroxy-1,5-naphthyridine-3-carboxamido)-α-phenyl (and p-hydroxyphenyl)acetamido]-3-carbamoyloxymethyl-3-cephem-4-carboxylic acids” (priority 1977, dated 1979)
